Values quoted from earlier work, collected in patent US12070523B2, “Sanitization of an article using in situ electrolysis” (APPLIED BIOCIDE GMBH, priority 2022, dated 2024).

[O-][Cl+2]([O-])O [chlorate]
ADI (allowable daily intake) (as ClO3^−): 0.0024 mg/kg BW·day | Maximum residue level (MRL), smallest MRL used as worst-case (chronic exposure, Commission Regulation (EU) 2020/749): 0.05 mg/kg BW·day
